Molecular target: T1, α-N-acetylgalactosaminidase (α-GalNAc-ase) from chicken liver (Gallus gallus, UniProt Q90744)
T1 construct: gene NAGA; commercial enzyme from chicken liver
T1 sequence (Q90744 1-405): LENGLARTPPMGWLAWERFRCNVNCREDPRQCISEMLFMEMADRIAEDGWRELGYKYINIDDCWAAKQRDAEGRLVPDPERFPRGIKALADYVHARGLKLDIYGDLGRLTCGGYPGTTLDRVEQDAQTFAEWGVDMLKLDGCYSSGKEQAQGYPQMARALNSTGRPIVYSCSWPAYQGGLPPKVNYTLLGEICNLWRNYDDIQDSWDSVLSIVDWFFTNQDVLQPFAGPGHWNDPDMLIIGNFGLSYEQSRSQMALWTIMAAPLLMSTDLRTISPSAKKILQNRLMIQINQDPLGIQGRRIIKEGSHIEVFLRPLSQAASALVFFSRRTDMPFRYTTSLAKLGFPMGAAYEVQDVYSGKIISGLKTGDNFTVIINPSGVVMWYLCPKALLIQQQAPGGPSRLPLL
Assay: LC-MS of Gc protein glycopeptides after treatment with a mix of three glycosidases with/without […] inhibitor
Assay type: biochemical

SMILES: OCC1NC(CNCCc2ccccc2)C(O)C1O (stereo not shown) [iminocyclitol, 2-Hydroxymethyl-5-(phenethylaminomethyl)-pyrrolidine-3,4-diol]
- LC-MS of Gc protein glycopeptides after treatment with a mix of three glycosidas: the inhibitory activity of iminocyclitol against α-GalNAc-ase was also observed (Figure 4c)
